Like-named read-outs stand apart in the source and are kept apart here.
Columns and labels:
[1] = test system: L. braziliensis; experiment: Leishmania high content assay, intracellular amastigotes in PMA-differentiated THP-1 macrophages; type: cell-based, Leishmania braziliensis (MHOM/BR/1975/M2903); conditions: for EC50: Leishmania braziliensis
Description: (§1) THP-1 cells were plated onto 384-well assay plates (7000 cells/well, 25 μL) in RPMI complete media containing 50 ng/mL phorbol 12-myristate 13-acetate (PMA) and incubated at 37 °C/5% CO2 for 48 h. Cells were then infected with stationary-phase promastigotes at a multiplicity of infection (MOI) of 50 by adding 25 μL RPMI (without PMA reagent), containing 1.4 × 10^7 parasites/mL. After 24 h of incubation at 37 °C (34 °C for cutaneous species), negative control-vehicle (0.5% DMSO), the positive control (10 μM amphotericin B), and compounds were added to the plate at a volume of 10 μL/well, bringing the total volume to 60 μL/well. For the primary screenings, compounds from the LOPAC library were tested at a concentration of 50 µM. […] Assay plates were incubated at 37 °C or 34 °C/5% CO2. After 96 h of compound exposure, assay plates were fixed with paraformaldehyde (PFA) by adding 30 μL of 12% PFA in PBS, pH 7.4, followed by incubation for 15 min at room temperature. Plates were then washed three times with 50 μL of PBS, pH 7.4, and stained with 10 μL/well of 5 μM Draq5 in PBS, pH 7.4, for at least two hours before imaging.
(§2) Plates were imaged in Operetta High Content Imaging System (Perkin Elmer), version 3.1, at a 20× magnification and filters optimized for far-red fluorescence (fluorescence filter: […]). A total of four images were acquired per well, which corresponded to 600–800 cells analyzed per condition. Quantitative readouts of the infection (total THP-1 cell number, total number of infected THP-1 cells, and number of parasites (spots) per infected cell) were determined by custom analysis building blocks in Columbus image analysis software (Perkin Elmer). Briefly, host nuclei and cells were segmented based on DNA staining, followed by the detection of individual parasites also based on DNA staining. Infected cells were determined as cells with one or more spots in the cytoplasmatic area. Details of the analysis workflow are described in the (Supplementary Information (Figure S4 and Table S1).
(§3) HCS data were analyzed as previously described^29. Briefly, the ratio of infected cells to the total number of cells was determined as the infection ratio (IR). The raw data for IR values was normalized to the negative (DMSO-treated infected cells) and positive (non-infected cells) controls to determine the normalized antiparasitic activity, expressed as a percentage in comparison to control wells. The cellular ratio was determined as the proportion between the host cell number in compound-treated wells and the mean cell number in infected control wells. Plates were submitted to quality control analysis using the Z’-factor^53 and only plates with Z’-factor > 0.5 were considered for further analysis. Groups of different samples were analyzed using the ANOVA test followed by Tukey’s multiple comparison test. Studies of correlation were performed using Pearson or Spearman tests. […] Dose–response data were processed with the Graphpad Prism software, version 6, using the sigmoidal dose–response (variable slope) nonlinear curve fitting function.

[2] = test system: L. donovani; experiment: as above; type: cell-based, Leishmania donovani (MHOM/IN/1980/DD8)
Description: as §1, §2, §3

[3] = test system: L. amazonensis, L. braziliensis, and L. donovani; experiment: Leishmania multi-species high content assay, result stated across the species panel; type: cell-based; conditions: for Emax: read-out: maximum efficacy; for pan-leishmanial activity (efficacy): against all three species; for normalized activity against two species: two of the three species
Description: as §1, §2, §3

[4] = test system: L. amazonensis; experiment: Leishmania high content assay, intracellular amastigotes in PMA-differentiated THP-1 macrophages; type: cell-based, Leishmania amazonensis (MHOM/BR/1977/LTB0016); conditions: for EC50: Leishmania amazonensis
Description: as §1, §2, §3

[5] = test system: visceral leishmaniasis; parameters: method as in earlier work; conditions: phase II clinical trial; cited from earlier work
[6] = test system: Leishmania; parameters: method as in PMID 27215734; conditions: cited from earlier work
[7] = test system: L. donovani; parameters: method as in PMID 21739037; conditions: in vitro; cited from earlier work
[8] = test system: amastigote forms of L. aethiopica; parameters: method as in PMID 11801222; conditions: cited from earlier work
[9] = THP-1, library screening plates, mean ± standard deviation from eight assay plates, read-out: EC50 Amphotericin B
[10] = reference compound concentration-effect curves (Figure 2B), 96 h exposure, infected THP-1, read-out: EC50
[11] = dose-response of reference drugs, span over the three species
[12] = THP-1, confirmatory dose-response, mean of two independent experiments, pEC50 = -log EC50 (M), read-out: pEC50 M L. d (converted)
[13] = THP-1, confirmatory dose-response, mean of two independent experiments, pEC50 = -log EC50 (M), read-out: pEC50 M L. b (converted)
[14] = THP-1, confirmatory dose-response, mean of two independent experiments, pEC50 = -log EC50 (M), read-out: pEC50 M L. a (converted)
[15] = THP-1, read-out: pEC50 M L. d (converted)
[16] = confirmatory dose-response, mean of two independent experiments, pEC50 = -log EC50 (M)

C[C@@H]1[C@H](O)[C@@H](C)/C=C/C=C/C=C/C=C/C=C/C=C/C=C/[C@H](O[C@@H]2O[C@H](C)[C@@H](O)[C@H](N)[C@@H]2O)C[C@@H]2O[C@](O)(C[C@@H](O)C[C@@H](O)[C@H](O)CC[C@@H](O)C[C@@H](O)CC(=O)O[C@H]1C)C[C@H](O)[C@H]2C(=O)O [amphotericin B]
EC50 [1, 9]: 9.3e-07 ± 4.5e-07 M | EC50 [1, 10]: 1.3e-06 M | EC50 [2, 9]: 8.2e-07 ± 7e-08 M | EC50 [2, 10]: 7e-07 M | EC50 [3, 11]: 0.7 to 2 µM | Emax [3, 11]: ~100% | EC50 [4, 9]: 2.1e-06 ± 1.6e-07 M | EC50 [4, 10]: 1.7e-06 M

OCCN1CCN(CCCN2c3ccccc3Sc3ccc(Cl)cc32)CC1 [Perphenazine]
EC50 [2, 12]: 2.75e-05 M

CN1CCN(C2Cc3ccccc3Sc3ccc(Cl)cc32)CC1 (centres unmarked) [Clorotepine]
EC50 [1, 13]: 2.88e-05 M | EC50 [2, 12]: 4.37e-05 M | EC50 [4, 14]: 4.57e-05 M

CSc1ccc(OCc2ncc([N+](=O)[O-])n2C)cc1 [fexinidazole]
efficacy in patients [5]: failed to demonstrate efficacy

CNCCCC1c2ccccc2C=Cc2ccccc21 [Protriptyline]
EC50 [1, 13]: 3.72e-05 M | EC50 [2, 12]: 2.95e-05 M | pan-leishmanial activity (efficacy) [3]: greater than 70% | EC50 [4, 14]: 3.89e-05 M

Cl.O=S(=O)(c1cccc2c(Cl)cccc12)N1CCCNCC1 [ML-9]
pan-leishmanial activity (efficacy) [3]: greater than 70%

CCN(CC)C(C)CN1c2ccccc2Sc2ccccc21 (centres unmarked) [Ethopropazine]
EC50 [1, 13]: 3.72e-05 M | EC50 [2, 12]: 3.16e-05 M | EC50 [4, 14]: 4.57e-05 M

CC[C@]1(O)C[C@@H]2CN(CCc3c([nH]c4ccccc34)[C@@](C(=O)OC)(c3cc4c(cc3OC)N(C)[C@H]3[C@@](O)(C(=O)OC)[C@H](OC(C)=O)[C@]5(CC)C=CCN6CC[C@]43[C@@H]65)C2)C1 [Vinblastine]
EC50 [1, 13]: 3.47e-05 M | EC50 [4, 14]: 2.82e-05 M

Fc1ccc([C@@H]2CCNC[C@H]2COc2ccc3c(c2)OCO3)cc1 [Paroxetine]
EC50 [2, 12]: 3.16e-05 M

CC(CN1c2ccccc2Sc2ccccc21)N(C)C (centres unmarked) [Promethazine]
EC50 [1, 13]: 3.98e-05 M | EC50 [4, 14]: 3.98e-05 M

CNC1CC(c2ccc(Cl)c(Cl)c2)c2ccccc21 (centres unmarked) [Indatraline]
EC50 ([2]; THP-1): 1.81e-05 M | EC50 [2, 15]: 1.82e-05 M

C[C@]1(COc2ccc(N3CCC(Oc4ccc(OC(F)(F)F)cc4)CC3)cc2)Cn2cc([N+](=O)[O-])nc2O1 [Delamanid]
efficacy against Leishmania [6]: effective

CNCCCN1c2ccccc2CCc2ccccc21 [Desipramine]
EC50 [1, 13]: 3.24e-05 M | EC50 [4, 14]: 2.75e-05 M

CN(C)CCCN1c2ccccc2Sc2ccc(C(F)(F)F)cc21 [Triflupromazine]
EC50 [2, 12]: 2.82e-05 M

c1cc(CN2CCCCC2)cc(OCCCNc2nc3ccccc3s2)c1 [SKF 95282]
EC50 [1, 13]: 2.63e-05 M | EC50 [2, 12]: 4.9e-05 M | EC50 [4, 14]: 4.27e-05 M

COc1ccccc1OCCNCC(O)COc1cccc2[nH]c3ccccc3c12 (centres unmarked) [Carvedilol]
EC50 ([1]; THP-1, confirmatory dose-response screen, values in text, read-out: EC50): 1.62e-05 M | EC50 [1, 13]: 1.62e-05 M | EC50 [4, 14]: 3.55e-05 M

CC(CN(C)C)CN1c2ccccc2CCc2ccccc21 (centres unmarked) [Trimipramine]
EC50 [1, 13]: 2.82e-05 M | EC50 [2, 12]: 4.07e-05 M | EC50 [4, 14]: 3.98e-05 M

CN(C)CCCN1c2ccccc2Sc2ccccc21 [Promazine]
EC50 [1, 13]: 4.57e-05 M

CN(C)CC/C=C1/c2ccccc2Sc2cc(Cl)ccc21.Cl [EU-0100170]
normalized activity against two species [3]: > 90%

OCCN1CCN(CCC=C2c3ccccc3Sc3ccc(C(F)(F)F)cc32)CC1 [Flupenthixol]
EC50 [2, 12]: 3.47e-05 M

CN(C)CCCN1c2ccccc2CCc2ccc(Cl)cc21 [Clomipramine]
pan-leishmanial activity (efficacy) [3]: greater than 70%

Cl.O[Si](CCCN1CCCCC1)(c1ccc(F)cc1)C1CCCCC1 (centres unmarked) [pFHHSiD]
normalized activity against two species [3]: > 90%

CNCCC=C1c2ccccc2CCc2ccccc21 [Nortriptyline]
EC50 [1, 13]: 3.63e-05 M | EC50 [4, 14]: 2.95e-05 M

CNCCCC12CCC(c3ccccc31)c1ccccc12 [Maprotiline]
pan-leishmanial activity (efficacy) [3]: greater than 70%

CCC(=O)c1ccc2c(c1)N(CCCN(C)C)c1ccccc1S2 [Propionylpromazine]
EC50 [1, 13]: 3.09e-05 M | EC50 [4, 14]: 3.47e-05 M

CN1C[C@H](CNC(=O)OCc2ccccc2)C[C@@H]2c3cccc4c3c(cn4C)C[C@H]21 [Metergoline]
EC50 [2, 12]: 3.24e-05 M

N=C(CC(=O)O)C(=O)O [Iminoaspartate]
pEC50 M L. b [1, 16]: 4.52 | pEC50 M L. a [4, 16]: 4.42

CCCCCCCCCCCCCCCCOP(=O)([O-])OCC[N+](C)(C)C [miltefosine]
potency against L. donovani relative to L. amazonensis, L. braziliensis, L. guyanensis, and L. chagasi [7]: approximately 20 times | EC50 [1, 10]: 1.6e-06 M | EC50 [2, 10]: 6e-07 M | potency variation between species ([3]; EC50 compared between the three species): up to 4 fold | Emax [3, 11]: 78 to 100% | sensitivity to miltefosine, L. aethiopica relative to L. major [8]: 14 fold | EC50 ([4]; THP-1, variation across ten independent experiments, read-out: EC50): 9.7e-07 to 1.4e-05 M | EC50 [4, 10]: 2.3e-06 M

CCc1cccc(N(C)C(N)=Nc2cccc3ccccc23)c1 [Cerestat]
EC50 [4, 14]: 2.88e-05 M

CCCCCCCCCCCCCCCCCCOP(=O)([O-])OC1CC[N+](C)(C)CC1 [Perifosine]
EC50 [2, 12]: 2.75e-05 M

Bromocryptine
pEC50 M L. b [1, 16]: 4.41 | pEC50 M L. a [4, 16]: 4.43

NC(=O)c1cc(N2CC2)c([N+](=O)[O-])cc1[N+](=O)[O-] [CB 1954]
EC50 ([1]; THP-1): 1.6e-06 M | EC50 ([1]; THP-1, read-out: pEC50 M L. b (converted)): 2.19e-06 M | EC50 ([2]; THP-1): 3.7e-06 M | EC50 [2, 15]: 3.72e-06 M | pan-leishmanial activity (efficacy) [3]: greater than 70% | EC50 ([4]; THP-1): 3.1e-05 M | EC50 ([4]; THP-1, read-out: pEC50 M L. a (converted)): 3.09e-05 M

CN1CCN(CCCN2c3ccccc3Sc3ccc(C(F)(F)F)cc32)CC1 [Trifluoperazine]
EC50 [2, 12]: 3.8e-05 M

Source: publication PMC7321149 (Molecules, 2020)
